Data published in patent US9468615B2, “Use of malononitrilamides in neuropathic pain” (AL-GIAX Pharmaceuticals GMBH, priority 2010, dated 2016).

Tests used:
[1] = tested on: severe spinal cord contusion injury in the rat; assay: Mechanical sensitivity (von Frey, Up-Down) after severe spinal cord contusion injury, treatment DPO 28-35; type: in vivo; details: for withdrawal threshold (50% threshold force): DPO 28, before start of treatment (group baseline), 15 grams before injury, vehicle group 2.7
Procedure: (§1) Thirteen week-old female Lewis rats (Charles River, Sulzfeld Germany) were housed under a 12:12 h dark/light regime and allowed free access to water and food. After one week of habituation the animals underwent general anesthesia with a mixture of isoflurane and air (induction: 5% isoflurane, maintenance: 2.2% isofluorane). A Th10 laminectomy was performed without rupturing the dura and a severe contusive SCI (25 gem NYU/MASCIS II impactor) (Gruner, 1992 #3) was induced. After suturing muscle and skin, a subcutaneous (s.c.) injection of 5 ml of Ringers Lactate was given. Bladders were emptied manually 2 times a day until spontaneous voiding returned (usually within 1 week). The lesion severity was verified by the impact velocity and contusion depth of the impactor rod. Animals with an impact velocity error >5% were excluded from further analysis. After injury, individual rats were randomly assigned into a treatment group. The following groups were used:
The mechanical sensitivity response was measured as the direct pressure stimulus required eliciting foot withdrawal in nonrestrained conditions. All tests were conducted in the morning between 7:30 and 10:30 am and the person performing the behavioral tests was blinded to the experimental groups. Animals were habituated to the testing apparatus for at least 20 min before testing. Each animal was subjected to the stimulation of a series of von Frey filaments ranging from 0.4 to 15 g (log force 3.61, 3.84, 4.08, 4.31, 4.56, 4.74, 4.93 and 5.18) using the Up-Down paradigm according to Chaplan (Chaplan et al., 1994). The selected von Frey filament was pressed against the plantar surface of the hind paw to the point of 30° bending for 3 s. Paw withdrawal response was considered as the positive response. The 50% threshold force needed for paw withdrawal was calculated for both hind paws of each rat and the mean value of both hind paws was used to represent the mechanical sensitivity of this animal.
(§2) Group 2: SCI+HR 325 (10 mg/kg/day) in vehicle by gavage for 7 days, from DPO 28 till DPO 35
(§3) Group 3: SCI+FK 778 (10 mg/kg/day) in vehicle by gavage for 7 day, from DPO 28 till DPO 35

[2] = tested on: severe spinal cord contusion injury in the rat; assay: Acetone test (cold chemical stimulus) after severe spinal cord contusion injury, treatment DPO 28-35; type: in vivo; details: 10 mg/kg/day by gavage DPO 28 till DPO 35
Procedure: as §1, §2, §3
A slightly modified method of De la Calle and colleagues (De la Calle et al., 2002) was used for the determination of the reactivity to a cold chemical stimulus. The rat was placed in acrylic cages on top of a wire mesh grid, which allowed access to the paws, and acetone was applied to the plantar surface of the hind paw. To do this, 100 μl of acetone was sprayed onto the plantar surface of the rat's hind leg from below the grid with a syringe holding 2.5 ml. The time spent with the leg withdrawn from floor during the 60 s following exposure to acetone was recorded. Both hind legs were tested in each animal with an interval of 5-10 min between each test. The average reaction time between the two legs was taken for further analysis. A minimal value of 1 s was assigned to convey a fast or brisk reaction, while 0 was assigned if there was no reaction at all. This acetone test has been described as composing of cold, chemical, and possibly mechanical stimulation.

[3] = tested on: spinal cord contusion injury; assay: Mechanical sensitivity (von Frey, Up-Down), chronic central neuropathic pain three months after spinal cord contusion injury, treatment DPO 84-91; type: in vivo, rat; details: DPO 28, before treatment (group baseline, stable up to DPO 84); 15 grams before injury; vehicle group 3.2
Procedure: as §1, with “used: The mechanical sensitivity response was measured as the direct pressure stimulus required eliciting foot withdrawal in nonrestrained conditions. […] The 50% threshold force needed for paw withdrawal was calculated for both hind paws of each rat and the mean value of both hind paws was used to represent the mechanical sensitivity of this animal. […]” for “used:”

[4] = tested on: partial ligation of the sciatic nerve; assay: Mechanical sensitivity (von Frey, Up-Down) after partial ligation of the sciatic nerve; type: in vivo, rat; details: DPO 21, after daily oral 10 mg/kg DPO 14 till DPO 21; 60 grams before injury, 19 grams at DPO 14 before treatment; FIG. 8
Procedure: The mechanical sensitivity response was measured as the direct pressure stimulus required eliciting foot withdrawal in nonrestained conditions. Animals were habituated to the testing apparatus for at least 20 min before testing. Each animal was subjected to the stimulation of a series of von Frey filaments ranging from 1.0 to 60 g using the Up-Down paradigm according to Chapter (Chaplan et al., 1994). The selected von Frey filament was pressed against the plantar surface of the hind paw to the point of 30° bending for 3 s. Paw withdrawal response was considered as the positive response. The 50% threshold force needed for paw withdrawal was calculated for both hind paws of each rat. The methods of Seltzer et al. (1990) were followed. The dorsum of the sciatic nerve was carefully freed from surrounding connective tissues at a site near the trochanter just distal to the point at which the posterior biceps semitendinosus nerve branches off the common sciatic nerve. The nerve was fixed in its place by pinching the epineurium on its dorsal aspect, taking care not to press the nerve against underlying structures. An 8-0 (Polyamide 6) suture was inserted into the nerve and tightly ligated so that the dorsal ⅓-½ of the nerve thickness was trapped in the ligature (Seltzer et al., 1990). […]

SMILES: C#CCCC(O)=C(C#N)C(=O)Nc1ccc(C(F)(F)F)cc1 [FK-778, N-(4-trifluoromethyl)-phenyl-2-cyano-3-hydroxy-hept-2-en-6-in-carboxylic acidamide]
- reversal of mechanical allodynia after experimental spinal cord injury (conclusion) ([1]; 10 mg/kg/day by gavage DPO 28 till DPO 35): able to reverse mechanical allodynia
- withdrawal threshold (50% threshold force) [1]: 3.1 grams
- withdrawal threshold vs vehicle control animals ([1]; DPO 35, 10 mg/kg/day by gavage DPO 28 till DPO 35, one-way ANOVA p<0.001, FIG. 2): significantly higher
- withdrawal threshold, difference to vehicle controls ([1]; end of experiment DPO 77, 10 mg/kg/day by gavage DPO 28 till DPO 35, p<0.001): statistically significant difference between the treated animals and the vehicle controls remained
- reversal of cold allodynia after experimental spinal cord injury (conclusion) [2]: able to reverse cold allodynia
- duration of response to acetone exposure vs vehicle controls ([2]; DPO 35, one-way ANOVA p<0.01, FIG. 3): responded significantly shorter
- duration of response to acetone exposure vs vehicle controls ([2]; DPO 56, ANOVA p<0.001, Bonferroni post-hoc): responded significantly shorter
- duration of response to acetone exposure, differences to vehicle controls ([2]; end of experiment DPO 70, p<0.01): differences remained unchanged

SMILES: Cc1cc(NC(=O)/C(C#N)=C(\O)C2CC2)ccc1C(F)(F)F [HR-325, 1(3-methyl-4-trifluoromethylphenyl-carbamoyl)-2-cyclopropyl-2oxo-propionitrile]
- withdrawal threshold (50% threshold force) [1]: 3.0 grams
- withdrawal threshold (50% threshold force) [3]: 2.7 grams
- withdrawal threshold in the ipsilateral paw [4]: 54 grams
